The target in the assay is human MGAT2 (Homo sapiens (Human), UniProt Q3SYC2). The assay can be described thus: Test Example 1: Test of MGAT2 inhibitory action (human MGAT2 enzyme fraction from Sf9 cells, free CoA detected by CPM fluorescence). Format: biochemical. The following applies: human MGAT2 enzyme fraction expressed in Sf9 insect cells, 0.5 μg/ml, 2-monooleoyl glycerol 0.78 μM, oleoyl-CoA 5.3 μM, room temperature 20 min. The protocol: The MGAT2 inhibitory action of the inventive compound was measured by the methods described in Test Examples as shown below. The MGAT enzyme activity was measured based on the amount of an indicator, free Coenzyme A (CoA) which is generated by the reaction shown below, using a sulfhydryl reactive pigment (7-diethylamino-3-(4-maleimidophenyl)-4-methylcoumarin; hereinafter, sometimes abbreviated as CPM).
A test for MGAT2 inhibitory action of test compounds was conducted in accordance with a partially modified version of the method described in John F. Lockwood et al., Am. J. Physiol. Endocrinol. Metab., 2003, 285, E927.
Bac-to-Bac Baculovirus Expression System (Life Technologies Japan) was used to express human MGAT2 in insect cells (Sf9) (Life Technologies Japan). These cells were sonicated and centrifuged at 100,000 g×1 hr to give a precipitate. The precipitate was used as a human MGAT2 enzyme fraction in this assay.
This test was conducted using a black flat-bottom 96-well plate (Corning). A buffer solution with final concentrations of 5 mM magnesium chloride, 100 mM sucrose and 100 mM Tris-HCl (pH=7.5) was prepared and test compounds prepared in various concentrations using dimethyl sulfoxide were added thereto to give a final dimethyl sulfoxide concentration of 1%. The MGAT2 enzyme fraction was added thereto to give a final concentration of 0.5 μg/ml and phosphatidylcholine, 2-monooleoyl glycerol and oleoyl-CoA were added thereto to give final concentrations of 7.5 μM, 0.78 μM and 5.3 μM, respectively, before starting a reaction. The reaction was performed at room temperature for 20 min.
After 20 min, a CPM-containing solution was added thereto to give a final concentration of 5 μM before stopping the MGAT reaction. After 1 hr, a fluorescence detector (Infinite 200 from Tecan Japan) was used to measure the CPM fluorescence value of each well (excitation 380 nm, emission 460 nm).

[1] abbreviates: read-out: Activity Value [nM] (IC50, concentration at which 50% of produced free CoA was inhibited).

This note sets out measurements from patent US9035059B2, “Nitrogen-containing condensed heterocyclic compound” (TAISHO PHARMACEUTICAL CO., LTD., priority 2011, dated 2015).

SMILES strings stand for the structures. Where two headings read alike, the source gives them in different places.

human MGAT2, sequence (Q3SYC2 whole entry): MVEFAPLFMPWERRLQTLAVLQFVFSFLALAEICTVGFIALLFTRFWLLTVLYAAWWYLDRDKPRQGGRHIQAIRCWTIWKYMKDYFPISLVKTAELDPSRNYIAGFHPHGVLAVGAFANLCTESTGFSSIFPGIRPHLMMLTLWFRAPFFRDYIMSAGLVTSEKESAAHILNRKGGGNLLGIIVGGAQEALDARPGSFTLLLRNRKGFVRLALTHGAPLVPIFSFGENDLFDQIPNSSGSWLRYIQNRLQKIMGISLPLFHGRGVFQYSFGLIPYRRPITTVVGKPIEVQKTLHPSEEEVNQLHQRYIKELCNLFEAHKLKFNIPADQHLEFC

Consider `CC(C)(C)c1ccc(CC(=O)N2CCc3cc(S(=O)(=O)Nc4ccc(OCCC5CCCCC5)cc4F)ccc3C2)cc1` [Working Example 4-1, 2-[(4-tert-Butylphenyl)acetyl]-N-[4-(2-cyclohexylethoxy)-2-fluorophenyl]-1,2,3,4-tetrahydroisoquinoline-6-sulfonamide], for which the IC50 under setting [1] turned out to be 149 nM.

As to `CC(Cc1ccc(C(C)(C)C)cc1)N1CCc2cc(S(=O)(=O)Nc3ccc(CCCC4CCCC4)cc3F)ccc2C1` (single isomer, unassigned) [Working Example 10-6], the IC50 (listed as 10-6, read-out: Activity Value [nM] (IC50, concentration at which 50% of produced free CoA was inhibited)) was found to be 44 nM. As to `C/C=C\CCCOc1ccc(NS(=O)(=O)c2ccc3c(c2)CN(C(=O)Nc2ccc(C(C)(C)C)cc2)C3)c(F)c1` [19-11], the IC50 under setting [1] is 128 nM.

With `CCC(c1ccc(C(C)(C)C)cc1)N1CCc2cc(S(=O)(=O)Nc3ccc(OCCCc4ccccc4)cc3F)ccc2C1` (stereo not shown) [Working Example 11-4], the IC50 under setting [1] was 235 nM.

Take `CC(C)(C)c1ccc(CCN2CCc3cc(S(=O)(=O)Nc4ccc(OCCC5CCOCC5)cc4F)ccc3C2)cc1` [17-7]: the IC50 under setting [1] was 79 nM. The same measure, in the same setting: the figure for `CC(C)(C)[C@H]1CC[C@H](C(=O)N2CCc3cc(S(=O)(=O)Nc4ccc(CCCC5CCCC5)cc4F)ccc3C2)CC1` [Working Example 1-6] is 88 nM. As for `CC(C)(C)c1ccc(CCN2CCc3cc(S(=O)(=O)Nc4ccc(OCCCC5CCCCC5)cc4F)ccc3C2)cc1` [17-6], the IC50 under setting [1] was 39 nM.

Turning to `CC(Cc1ccc(C(C)(C)C)cc1)N1CCc2cc(S(=O)(=O)Nc3ccc(OCCCC4CCCCC4)cc3F)ccc2C1` (single isomer, unassigned) [Working Example 10-13], the IC50 (listed as 10-13, read-out: Activity Value [nM] (IC50, concentration at which 50% of produced free CoA was inhibited)) is 66 nM. Consider `CC(C)(C)c1ccc(NC(=O)N2Cc3ccc(S(=O)(=O)Nc4ccc(OCCOc5ccccc5)cc4F)cc3C2)cc1` [18-18], for which the IC50 under setting [1] is 136 nM. Take `CCCCCOc1ccc(NS(=O)(=O)c2ccc3c(c2)CN(C(=O)Nc2ccc(C(C)(C)C)cc2)C3)c(F)c1` [14-18]: the IC50 under setting [1] came to 147 nM. On the same count and under the same terms, the figure for `CCCCCCOc1ccc(NS(=O)(=O)c2ccc3c(c2)CCN(CCc2cnc(C(C)(C)C)cn2)C3)c(F)c1` [Working Example 9-20] is 212 nM. On the same count and under the same terms, under `CCCCCCOc1ccc(NS(=O)(=O)c2ccc3c(c2)CCN(CCc2ccc(C(C)(C)C)cc2)C3)c(F)c1` [Working Example 8-3] stands 133 nM; under `CC(c1ccc(C(C)(C)C)cc1)N1CCc2cc(S(=O)(=O)Nc3ccc(OCCCc4ccccc4)cc3F)ccc2C1` (stereo not shown) [Working Example 11-3], 116 nM; under `CC(C)(C)c1ncc(CN2CCc3cc(S(=O)(=O)Nc4ccc(CCCC5CCCC5)cc4F)ccc3C2)cn1` [Working Example 7-56], 52 nM. With `O=C(OC1CCCCC1)N1CCc2cc(S(=O)(=O)Nc3ccc(CCCC4CCCC4)cc3F)ccc2C1` [26-1, Cyclohexyl 6-{[4-(3-cyclopentylpropyl)-2-fluorophenyl]sulfamoyl}-3,4-dihydroisoquinoline-2(1H)-carboxylate], the IC50 under setting [1] came to 217 nM. Regarding `CC(C)(C)c1ccc(CCN2CCc3cc(S(=O)(=O)Nc4ccc(OCCCc5ccccc5)cc4F)ccc3C2)cn1` [Working Example 6-45], under setting [1], the IC50 is 286 nM. For the compound `CCCCCCCc1ccc(NS(=O)(=O)c2ccc3c(c2)CCN(Cc2cnc(C(C)(C)C)s2)C3)c(F)c1` [Working Example 7-32], the IC50 under setting [1] came out at 42 nM. Take `CC(C)(C)c1ccc(NC(=O)N2Cc3ccc(S(=O)(=O)Nc4ccc(OCCc5ccccn5)cc4F)cc3C2)cc1` [19-12]: the IC50 under setting [1] was found to be 23 nM. For the compound `CCCCCCOc1ccc(NS(=O)(=O)c2ccc3c(c2)CCN(C(C)Cc2ccc(C(C)(C)C)cc2)C3)c(F)c1` (single isomer, unassigned) [Working Example 10-4], where the note is “listed as 10-4, read-out: Activity Value [nM] (IC50, concentration at which 50% of produced free CoA was inhibited)”, the IC50 is 39 nM.
